This note sets out measurements from patent publication US9708331B2, “Metabotrophic glutamate receptor 5 modulators and methods of use thereof” (SUNOVION PHARMACEUTICALS INC., priority 2011, dated 2017).

Structures are written as SMILES. pEC50: −log10 of the molar value.

Chain of mGluR5 (P41594 21-1212): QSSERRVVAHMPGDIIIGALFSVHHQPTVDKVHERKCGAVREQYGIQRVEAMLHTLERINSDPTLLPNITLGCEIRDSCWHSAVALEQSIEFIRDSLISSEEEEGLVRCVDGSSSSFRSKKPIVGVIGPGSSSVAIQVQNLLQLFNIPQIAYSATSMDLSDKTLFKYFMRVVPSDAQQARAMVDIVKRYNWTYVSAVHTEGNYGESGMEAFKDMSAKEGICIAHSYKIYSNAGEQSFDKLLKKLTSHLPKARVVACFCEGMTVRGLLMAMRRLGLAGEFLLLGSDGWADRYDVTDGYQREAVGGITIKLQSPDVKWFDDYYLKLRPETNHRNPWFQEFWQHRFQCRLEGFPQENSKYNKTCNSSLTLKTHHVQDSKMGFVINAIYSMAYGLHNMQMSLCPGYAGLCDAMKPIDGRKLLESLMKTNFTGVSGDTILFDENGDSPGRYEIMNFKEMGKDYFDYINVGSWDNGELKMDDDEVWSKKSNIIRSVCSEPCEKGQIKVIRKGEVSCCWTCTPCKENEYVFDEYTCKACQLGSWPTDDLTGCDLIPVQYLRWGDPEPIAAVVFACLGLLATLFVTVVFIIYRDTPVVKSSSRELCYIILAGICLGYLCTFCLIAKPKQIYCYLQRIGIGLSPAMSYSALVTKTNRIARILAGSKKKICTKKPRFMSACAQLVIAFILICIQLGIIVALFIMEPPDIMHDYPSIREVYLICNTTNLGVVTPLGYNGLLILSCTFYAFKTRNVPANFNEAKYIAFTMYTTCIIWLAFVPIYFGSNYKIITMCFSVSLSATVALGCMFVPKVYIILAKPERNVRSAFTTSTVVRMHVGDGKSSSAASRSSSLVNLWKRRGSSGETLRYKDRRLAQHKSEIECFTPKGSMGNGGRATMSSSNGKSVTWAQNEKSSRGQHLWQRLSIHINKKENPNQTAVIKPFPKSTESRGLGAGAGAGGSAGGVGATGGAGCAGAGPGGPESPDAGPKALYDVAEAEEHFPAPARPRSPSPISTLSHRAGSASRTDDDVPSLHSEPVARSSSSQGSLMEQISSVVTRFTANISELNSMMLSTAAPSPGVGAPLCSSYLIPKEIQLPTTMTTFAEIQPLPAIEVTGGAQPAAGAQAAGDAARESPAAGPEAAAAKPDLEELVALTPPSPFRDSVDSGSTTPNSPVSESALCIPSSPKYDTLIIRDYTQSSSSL

This assay concerns the target mGluR5 (Homo sapiens, UniProt P41594). Description: mGluR5 PAM EC50 (positive allosteric modulator potency). In kind it is cell-based.
Regarding `COCC1Cc2nc3cc(C#Cc4ccccn4)ccc3c(=O)n2C1` (single isomer, unassigned) [Example 1.1b], the negative-log EC50 (pEC50) was 6.52 to 7.00. With `CC(C)(O)C1Cc2nc3cc(C#Cc4ccccn4)ccc3c(=O)n2C1` (single isomer, unassigned) [Example 1.2a], the pEC50 was 7.52 to 8.00.

Take `CC(C)(O)C1Cc2nc3cc(C#Cc4ccccn4)ccc3c(=O)n2C1` (single isomer, unassigned) [Example 1.2b]: the negative-log EC50 (pEC50) was 6.00 to 6.52. Under `CC(C)(F)C1Cc2nc3cc(C#Cc4ccccn4)ccc3c(=O)n2C1` (single isomer, unassigned) [Example 1.3a] stands more than 8.00. Take `CC(C)(F)C1Cc2nc3cc(C#Cc4ccccn4)ccc3c(=O)n2C1` (single isomer, unassigned) [Example 1.3b]: the negative-log EC50 (pEC50) is 6.52 to 7.00.

On to `O=c1c2ccc(C#Cc3ccccn3)cc2nc2n1CC(CF)C2` (single isomer, unassigned) [Example 1.9a], for which the pEC50 is 7.00 to 7.52. Compound `O=c1c2ccc(C#Cc3ccccn3)cc2nc2n1CC(CF)C2` (single isomer, unassigned) [Example 1.9b] gave a negative logarithm of the EC50 (pEC50) of 6.00 to 6.52.

Take `CC1(C)Cn2c(nc3cc(C#Cc4ccccn4)ccc3c2=O)C1F` (single isomer, unassigned) [Example 1.11a]: the pEC50 was more than 8.00. The result for `CC1(C)Cn2c(nc3cc(C#Cc4ccccn4)ccc3c2=O)C1F` (single isomer, unassigned) [Example 1.11b] reads 7.52 to 8.00. For the compound `CC1CCn2c(nc3cc(C#Cc4ccccn4)ccc3c2=O)C1` (single isomer, unassigned) [Example 2.1a], the pEC50 is 7.52 to 8.00. The result for `CC1CCc2nc3cc(C#Cc4ccccn4)ccc3c(=O)n2C1` (single isomer, unassigned) [Example 2.2b] reads 7.52 to 8.00; that for `CC1CCCc2nc3cc(C#Cc4ccccn4)ccc3c(=O)n21` (single isomer, unassigned) [Example 2.3b], more than 8.00; that for `CC1Cn2c(nc3cc(C#Cc4ccccn4)ccc3c2=O)CO1` (single isomer, unassigned) [Example 2.4b], more than 8.00. `CC1Cn2c(nc3cc(C#Cc4ccccn4)ccc3c2=O)CN1C` (single isomer, unassigned) [Example 2.5a] gave a pEC50 of 7.00 to 7.52. `CCC1CCCc2nc3cc(C#Cc4ccccn4)ccc3c(=O)n21` (single isomer, unassigned) [Example 2.7a] showed a pEC50 of 7.00 to 7.52. The result for `CCC1CCCc2nc3cc(C#Cc4ccccn4)ccc3c(=O)n21` (single isomer, unassigned) [Example 2.7b] reads more than 8.00. Under `CC1(F)CCc2nc3cc(C#Cc4ccccn4)ccc3c(=O)n2C1` (single isomer, unassigned) [Example 2.13a] stands 7.52 to 8.00; under `O=c1c2ccc(C#Cc3ccccn3)cc2nc2n1CC(C(F)(F)F)CC2` (single isomer, unassigned) [Example 2.14b], more than 8.00; under `CC1(C)CC(F)c2nc3cc(C#Cc4ccccn4)cnc3c(=O)n2C1` (single isomer, unassigned) [Example 2.15a], 7.00 to 7.52. The result for `CC1CCc2nc3cc(C#Cc4ccccn4)cnc3c(=O)n2C1` (single isomer, unassigned) [Example 2.16b] reads 6.52 to 7.00; that for `CC1CCn2c(nc3cc(C#Cc4ccccn4)cnc3c2=O)C1` (single isomer, unassigned) [Example 2.17b], 6.00 to 6.52; that for `CCC1CCc2nc3cc(C#Cc4ccccn4)cnc3c(=O)n2C1` (single isomer, unassigned) [Example 2.22b], 6.52 to 7.00.

Take `CCC1CCn2c(nc3cc(C#Cc4ccccn4)cnc3c2=O)C1` (single isomer, unassigned) [Example 2.22c]: the pEC50 was 7.52 to 8.00.

`O=c1c2ccc(C#Cc3ccccn3)cc2nc2n1CCC(F)CC2` (single isomer, unassigned) [Example 3.1a] had a negative logarithm of the EC50 (pEC50) of 7.00 to 7.52.

Consider `O=c1c2ccc(C#Cc3ccccn3)cc2nc2n1CCC(O)CC2` (single isomer, unassigned) [Example 3.2a], for which the pEC50 is 6.00 to 6.52. Regarding `O=c1c2ccc(C#Cc3ccccn3)cc2nc2n1CCC(O)CC2` (single isomer, unassigned) [Example 3.2b], the negative-log EC50 (pEC50) is 7.00 to 7.52. The result for `O=c1c2ccc(C#Cc3ccccn3)cc2nc2n1CC1COCC1CC2` (single isomer, unassigned) [Example 3.2d] reads 7.00 to 7.52; that for `O=c1c2ccc(C#Cc3ccccn3)cc2nc2n1CCC1COCC1C2` (single isomer, unassigned) [Example 3.2e], 7.00 to 7.52; that for `O=c1c2ccc(C#Cc3ccccn3)cc2nc2n1CCC1COCC1C2` (single isomer, unassigned) [Example 3.2f], more than 8.00. The compound `O=c1c2ccc(C#Cc3ccccn3)cc2nc2n1CCC1(CCCO1)CC2` (single isomer, unassigned) [Example 3.3a] gave a negative logarithm of the EC50 (pEC50) of 7.00 to 7.52.

As for `O=c1c2ccc(C#Cc3ccccn3)cc2nc2n1CCC1(CCCO1)CC2` (single isomer, unassigned) [Example 3.3b], the pEC50 was 6.52 to 7.00. In turn, `O=c1c2ncc(C#Cc3ccccn3)cc2nc2n1CCC(C(F)(F)F)CC2` (single isomer, unassigned) [Example 3.9a] had a pEC50 of 7.00 to 7.52. Consider `CC1(F)CCc2nc3cc(C#Cc4ccccn4)cnc3c(=O)n2CC1` (single isomer, unassigned) [Example 3.10a], for which the pEC50 is 6.52 to 7.00. The compound `CC1CCc2nc3c(F)c(C#Cc4ccccn4)ccc3c(=O)n2CC1` (single isomer, unassigned) [Example 3.12a] had a negative logarithm of the EC50 (pEC50) of more than 8.00. The compound `CC1CCc2nc3c(F)c(C#Cc4ccccn4)ccc3c(=O)n2CC1` (single isomer, unassigned) [Example 3.12b] showed a negative logarithm of the EC50 (pEC50) of 7.52 to 8.00. The result for `CCC1CCc2nc3cc(C#Cc4ccccn4)ccc3c(=O)n2CC1` (single isomer, unassigned) [Example 3.13a] reads more than 8.00. `CCC1CCc2nc3cc(C#Cc4ccccn4)ccc3c(=O)n2CC1` (single isomer, unassigned) [Example 3.13b] showed a pEC50 of 7.52 to 8.00. As for `CCC1CCc2nc3cc(C#Cc4ccccn4)cnc3c(=O)n2CC1` (single isomer, unassigned) [Example 3.14a], the pEC50 was 7.00 to 7.52.

For the compound `CC1(F)CCCc2nc3cc(C#Cc4ccccn4)ccc3c(=O)n2C1` (single isomer, unassigned) [Example 3.24a], the negative-log EC50 (pEC50) was more than 8.00. Under `CC1Cc2nc3cc(C#Cc4ccccn4)cnc3c(=O)n2CCC1(F)F` (single isomer, unassigned) [Example 3.31c] stands 7.00 to 7.52; under `CC1Cn2c(nc3cc(C#Cc4ccccn4)cnc3c2=O)CCC1(F)F` (single isomer, unassigned) [Example 3.31e], 7.00 to 7.52.

Turning to `O=c1c2ccc(C#Cc3ccccn3)cc2nc2n1C[C@H]1CCCN21` (stereo in doubt) [Example 1.22], the negative-log EC50 (pEC50) is 7.00 to 7.52. The result for `COCCC1Cc2nc3cc(C#Cc4ccccn4)ccc3c(=O)n2C1` (stereo not drawn) [Example 1.5, 2-(2-methoxyethyl)-6-(pyridin-2-ylethynyl)-2,3-dihydropyrrolo[2,1-b]quinazolin-9(1H)-one] reads 6.52 to 7.00; that for `O=c1c2ccc(C#Cc3ccccn3)cc2nc2n1CC1(COC1)C2` [Example 1.6, 6′-(pyridin-2-ylethynyl)-1′H-spiro[oxetane-3,2′-pyrrolo[2,1-b]quinazolin]-9′(3′H)-one], 7.00 to 7.52; that for `CC1(C)Cc2nc3c(F)c(C#Cc4ccccn4)ccc3c(=O)n2C1` [Example 1.16, 5-fluoro-2,2-dimethyl-6-(pyridin-2-ylethynyl)-2,3-dihydropyrrolo[2,1-b]quinazolin-9(1H)-one], more than 8.00.

For the compound `O=c1c2ncc(C#Cc3ccccn3)cc2nc2n1CC(C(F)(F)F)C2` (stereo not drawn) [Example 1.17, 3-(pyridin-2-ylethynyl)-7-(trifluoromethyl)-7,8-dihydropyrido[3,2-d]pyrrolo[1,2-a]pyrimidin-10(6H)-one], the negative-log EC50 (pEC50) is 6.52 to 7.00.

`COCCC1Cc2nc3cc(C#Cc4ccccn4)cnc3c(=O)n2C1` (stereo not drawn) [Example 1.18, 7-(2-methoxyethyl)-3-(pyridin-2-ylethynyl)-7,8-dihydropyrido[3,2-d]pyrrolo[1,2-a]pyrimidin-10(6H)-one] gave a negative logarithm of the EC50 (pEC50) of 6.00 to 6.52. The result for `CC1(C)Cn2c(nc3cc(C#Cc4ccccn4)cnc3c2=O)C1F` (stereo not drawn) [Example 1.20, 6-fluoro-7,7-dimethyl-3-(pyridin-2-ylethynyl)-7,8-dihydropyrido[3,2-d]pyrrolo[1,2-a]pyrimidin-10(6H)-one] reads 6.52 to 7.00; that for `O=c1c2ccc(C#Cc3ccccn3)cc2nc2n1CC1CCCCN21` (stereo not drawn) [Example 1.23, 3-(pyridin-2-ylethynyl)-9,10,10a,11-tetrahydro-7H-pyrido[1′,2′:3,4]imidazo[2,1-b]quinazolin-13(8H)-one], 7.00 to 7.52; that for `C=CC1(O)CCc2nc3cc(C#Cc4ccccn4)ccc3c(=O)n2C1` (stereo not drawn) [Example 2.18, 8-hydroxy-3-(pyridin-2-ylethynyl)-8-vinyl-8,9-dihydro-6H-pyrido[2,1-b]quinazolin-11(7H)-one], 6.00 to 6.52. The result for `O=c1c2ncc(C#Cc3ccccn3)cc2nc2n1CCC(C(F)(F)F)C2` (stereo not drawn) [Example 2.21, 3-(pyridin-2-ylethynyl)-7-(trifluoromethyl)-8,9-dihydro-6H-dipyrido[1,2-a:3′,2′-d]pyrimidin-11(7H)-one] reads 7.00 to 7.52; that for `CC1(C)CCn2c(nc3cc(C#Cc4cccc(C#N)n4)ccc3c2=O)C1` [Example 2.24a, 6-((7,7-dimethyl-11-oxo-7,8,9,11-tetrahydro-6H-pyrido[2,1-b]quinazolin-3-yl)ethynyl)picolinonitrile], more than 8.00; that for `CC1(C)CCc2nc3cc(C#Cc4cccc(C#N)n4)ccc3c(=O)n2C1` [Example 2.24b, 6-((8,8-dimethyl-11-oxo-7,8,9,11-tetrahydro-6H-pyrido[2,1-b]quinazolin-3-yl)ethynyl)picolinonitrile], 7.52 to 8.00. The result for `CC1(C)CCn2c(nc3cc(C#Cc4cc(C#N)ccn4)ccc3c2=O)C1` [Example 2.25a, 2-((7,7-dimethyl-11-oxo-7,8,9,11-tetrahydro-6H-pyrido[2,1-b]quinazolin-3-yl)ethynyl)isonicotinonitrile] reads 7.52 to 8.00.

Broadly, the pEC50 is −log10 of the EC50, conventionally taken in molar units. Low values mean a high EC50, high ones a low EC50.
